Data: patent US20130324555A1, “Method of use of pharmaceutical formulations for the treatment of apicomplexan diseases in animals” (priority 2012, published 2013)
Values after ≈ are worked out from the molar mass of the structure shown.

Key:
[1] = system: T. gondii tachyzoites; assay: In vitro inhibition of T. gondii tachyzoites (RH-YFP fluorescence / [3H]-uracil incorporation); format: cell-based; conditions: for MIC50 / MIC90: Toxoplasma gondii, T. gondii tachyzoites in HFF cells; for activity against T. gondii tachyzoites, in words: only MIC50≦1 μM considered active
Description: Determination of the anti-apicomplexan activity of Compounds of Formula I may be determined by one skilled in the art. Parasite proliferation was monitored by using stably transfected type I RH-YFP parasites, which constitutively express Yellow Florescent Protein. Proliferation also was tested using a [^3H]-Uracil incorporation assay, as Uracil is incorporated into nucleic acids of T. gondii tachyzoites, but not mammalian cells, as they divide. Complimentary challenge assays ensured that the observed fluorescence data was due to parasite inhibition and not to quenched fluorescence. Pyrimethamine and sulfadiazine were used as positive controls, and DMSO at a concentration of 0.1% was used as the negative control. Because T. gondii is an obligate parasite, compounds that are toxic to host cells will appear to inhibit parasite growth. Therefore, all test compounds were simultaneously evaluated for efficacy and toxicity against human cells.
Test compounds were dissolved in DMSO to make a 10 mM solution, and subsequently diluted with IMDM-C to the concentrations used in bioassay. In the in vitro experiments DMSO concentration was not greater than 0.1% unless otherwise specified. RH-YFP parasites, which stably express Yellow Florescent Protein, were used. Tachyzoites were extracted from HFF cells by double passage through a 25-gauge needle, centrifuged for 15 minutes at 1500 RPM, and resuspended in IMDM-C. Confluent monolayers of HFF cells were infected with parasites in 96-well plates (Falcon 96 Optilux Flat-bottom) with 3,500 parasites in 100 uL per well. One hour after inoculation, test compounds and control media were added for a final volume of 200 uL per well. Parasite proliferation was assessed using [^3H]-Uracil incorporation or YFP Fluorescence assay.
Human Foreskin Fibroblast (HFF) cells were maintained in confluent monolayers in Iscoves's Modified Dulbecco's Medium supplemented with 10% fetal bovine serum, 1% GlutaMAX and 1% penicillin-streptomycin-fungizone (IMDM-C). T. gondii tachyzoites were cultivated in HFF monolayers. Parasites and cells were maintained at 33° C. or 37° C. and 5% CO2. The strains of parasite used in this study include RH, RH-YFP, and Prugnaud FLUC (Type 2 parasites stably transfected with luciferase), Me49 strain, and TgGoatUS4 isolate.
25 μL of 0.1 mCi/mL*^3H]-Uracil or [^3H]-Thymidine was added to each well 24 hours before reading plates. At harvesting, contents of the wells were transferred onto a 96-well UniFilter GF/C filter plates using a Filtermate 196 cell harvester (Packard). [^3H]-Uracil and [^3H]-Thymidine incorporation was measured using a Microplate Scintillation Luminescence Counter (Packard).
72 hours after initiation of the in vitro challenge assay, parasite proliferation was assessed by reading fluorescence of YFP parasites with a Synergy H4 Hybrid Reader (BioTek) and Gen5 1.10 software, using a bottom optics positions, excitation wavelength of 514 nm, and emission wavelength of 540 nm.

[2] = system: P. falciparum D6 (CDC/Sierra Leone); assay: Malaria SYBR Green 1-Based Fluorescence (MSF) Assay, strain D6; format: cell-based; conditions: Plasmodium falciparum, D6, read-out: D6 IC50
Description: Compound activity against P. falciparum, the causative agent of malaria, was assessed using the Malaria SYBR Green 1-Based Fluorescence (MSF) Assay. This microtiter plate drug sensitivity assay uses the presence of malarial DNA as a measure of parasitic proliferation. The assay is a microtiter plate drug sensitivity assay that uses the presence of malarial DNA as a measure of parasitic proliferation in the presence of antimalarial drugs or experimental compounds based on modifications of previously described methods (Plouffe et al., Proc Natl Acad Sci USA. 2008, 105, 9059-9064), (Johnson et al., Antimicrob. Agents Chemother. 2005, 49, 3463-3467).
Selected compounds were examined for activity against two strains of P. falciparum: D6 (CDC/Sierra Leone), a drug-sensitive and readily killed by chloroquine, and TM90-C235, a multi-drug resistant strain resistant to chloroquine.
D6 (CDC/Sierra Leone) and TM90-C235 (WRAIR, Thailand) laboratory strains of P. falciparum were used for each drug sensitivity assessment. The parasite strains were maintained continuously in long-term cultures as previously described in Johnson et al, and P. falciparum strains in late-ring or early-trophozoite stages were cultured in predosed 384-well microtiter drug assay plates in 38 μl culture volume per well at a starting parasitemia of 0.3% and a hematocrit of 2%. Pre-dosed, sterile, 384 well black optical bottom microtiter drug plates for use in the MSF assay were produced using a Tecan EVO Freedom Liquid Handling System (Tecan US, Durham, N.C.). Dose response plates were produced at a final concentration ranging from 0.5-10000 ng/ml in quadruplicate (twelve two-fold serial dilutions of each test compound or chloroquine control in DMSO. Each run was validated by a batch control plate with chloroquine (Sigma-Aldrich Co., Catalog #C6628) at a final concentration of 2000 ng/ml. The cultures were incubated for 72 hours at 37° C., 5% CO2, 5% O2 and 90% N2. Lysis buffer (38 μl per well), consisting of 20 mM Tris HCl, 5 mM EDTA, 1.6% Triton X, 0.016% saponin, and SYBR green I dye at a 20× concentration (Invitrogen, Catalog #S-7567) was then added to the assay plates utilizing the Tecan EVO Freedom system for a final SYBR Green concentration of 10×. Plates were incubated in the dark at room temperature in the dark for 24 hours.
Compound activity was assessed by examining for the relative fluorescence units (RFU) per well using the Tecan Genios Plus (Tecan US, Inc., Durham, N.C.). GraphPad Prism (GraphPad Software Inc., San Diego, Calif.) using the nonlinear regression (sigmoidal dose-response/variable slope) equation was used to determine IC50 values.

[3] = Hydrolytic stability of acylated derivatives (data not shown); format: physicochemical
Description: A cursory study of the effect of capping the phenol of 4 via acylation was undertaken. The acylated derivatives 7 were prepared and tested. […] The intrinsic activity of intact 7a cannot yet be ruled out, and this interesting phenomenon is currently under study.

With C#Cc1cccc(NC(=O)c2cc(Cl)ccc2O)c1 [Compound 3d] the MIC50 [1] was > 1 µM and the MIC90 [1] was > 1 µM.

For CCOc1cccc(NC(=O)c2cc(F)ccc2O)c1 [Compound 3ac], the MIC50 [1] was > 1 µM, the MIC90 [1] was > 1 µM and the “activity against T. gondii tachyzoites, in words” value (“activity” for short) [1] was “no activity”.

For O=C(Nc1cccc(Cl)c1)c1cc(I)cc(I)c1O [Compound 3aa], the MIC50 [1] was > 1 µM, the MIC90 [1] was > 1 µM and the “activity” value [1] was “no activity”.

In the case of O=C(Nc1cc(F)cc(F)c1)c1cc(Cl)ccc1O [Compound 3o], the MIC50 [1] is reported as > 1 µM, the MIC90 [1] is reported as > 1 µM and the “activity” value [1] is reported as “inactive”.

In the case of COc1cc(C)cc(NC(=O)c2cc(Cl)ccc2O)c1 [Compound 3x], the MIC50 [1] is reported as > 1 µM and the MIC90 [1] is reported as > 1 µM.

In the case of CCN(CC)CCCC(C)Nc1ccnc2cc(Cl)ccc12 (stereo not drawn) [Chloroquine, reference compound], the IC50 [2] is reported as 3.8 ng/mL (≈ 0.0119 µM).

In the case of Cc1cccc(NC(=O)c2cc(Cl)ccc2O)c1 [Compound 3a], the MIC50 [1] is reported as > 1 µM and the MIC90 [1] is reported as > 1 µM.

With O=C(Nc1ccc2c(c1)OCCO2)c1cc(Cl)ccc1O [Compound 3ab] the MIC50 [1] was > 1 µM, the MIC90 [1] was > 1 µM and the “activity” value [1] was “devoid of activity”.

For CC(C)Oc1cccc(NC(=O)c2cc(Cl)ccc2O)c1 [Compound 3w], the MIC50 [1] was > 1 µM and the MIC90 [1] was > 1 µM.

In the case of COc1cccc(NC(=O)c2cc(F)ccc2O)c1 [Compound 10b], the MIC50 [1] is reported as > 1 µM, the MIC90 [1] is reported as > 1 µM and the “activity” value [1] is reported as “inactive”.

For CN1CCN(C(=O)Oc2ccc(Cl)cc2C(=O)Nc2ccc([N+](=O)[O-])cc2Cl)CC1 [Compound 7d, 4-chloro-2-((2-chloro-4-nitrophenyl)carbamoyl)phenyl 4-methylpiperazine-1-carboxylate], the “activity” value [1] was “devoid of activity” and the stability against hydrolysis [3] was “much more stable against hydrolysis”.

With Cc1cc(C)cc(NC(=O)c2cc(Cl)ccc2O)c1 [Compound 3s] the MIC50 [1] was > 1 µM and the MIC90 [1] was > 1 µM.

In the case of O=C(Nc1ccc([N+](=O)[O-])cc1Cl)c1ccccc1O [Compound 3k], the MIC50 [1] is reported as > 1 µM, the MIC90 [1] is reported as > 1 µM and the “activity” value [1] is reported as “eliminated activity altogether”.

For O=C(Nc1cccc(OC(F)F)c1)c1cc(Cl)ccc1O [Compound 3z], the MIC50 [1] was > 1 µM and the MIC90 [1] was > 1 µM.

For O=C(Nc1cccc(Oc2ccccc2)c1)c1cc(Cl)ccc1O [Compound 3y], the MIC50 [1] was > 1 µM and the MIC90 [1] was > 1 µM.

For COc1ccc(NC(=O)c2cc(Cl)ccc2O)c(OC)c1OC [Compound 3q], the MIC50 [1] was > 1 µM, the MIC90 [1] was > 1 µM and the “activity” value [1] was “devoid of activity”.

In the case of COC(=O)[C@@H]1CCCC1C(=O)Oc1ccc(Cl)cc1C(=O)Nc1ccc([N+](=O)[O-])cc1Cl (stereo partly drawn) [Compound 7b], the MIC50 [1] is reported as > 1 µM, the MIC90 [1] is reported as > 1 µM and the “activity” value [1] is reported as “devoid of activity”. For the same compound, the stability against hydrolysis [3] was “much more stable against hydrolysis”.

In the case of C#Cc1cc(NC(=O)c2cc(Cl)ccc2O)ccc1F [Compound 3t], the MIC50 [1] is reported as > 1 µM, the MIC90 [1] is reported as > 1 µM and the “activity” value [1] is reported as “inactive”.

For O=C(Nc1ccc(Cl)cc1F)c1cc(Cl)ccc1O [Compound 3p, 5-chloro-N-(4-chloro-2-fluorophenyl)-2-hydroxybenzamide], the “activity” value [1] was “removed all activity”.

For O=C(Nc1ccc([N+](=O)[O-])cc1Cl)c1cc(Cl)ccc1OC(=O)N1CCOCC1 [Compound 7c], the MIC50 [1] was > 1 µM, the MIC90 [1] was > 1 µM and the “activity” value [1] was “devoid of activity”. For the same compound, the stability against hydrolysis [3] was “much more stable against hydrolysis”.

For Cc1cccc(NC(=O)c2cc(F)ccc2O)c1 [Compound 10a], the MIC50 [1] was > 1 µM, the MIC90 [1] was > 1 µM and the “activity” value [1] was “inactive”.

In the case of CCOc1cccc(NC(=O)c2cc(Cl)ccc2O)c1 [Compound 3u], the MIC50 [1] is reported as > 1 µM and the MIC90 [1] is reported as > 1 µM.

For N#Cc1cccc(NC(=O)c2cc(Cl)ccc2O)c1 [Compound 3g], the MIC50 [1] was > 1 µM and the MIC90 [1] was > 1 µM.

In the case of Nc1ccc(NC(=O)c2cc(Cl)ccc2O)c(Cl)c1 [Compound 5], the MIC50 [1] is reported as > 1 µM, the MIC90 [1] is reported as > 1 µM and the “activity” value [1] is reported as “all activity was lost”.

In the case of COc1ccc(NC(=O)c2cc(Cl)ccc2O)cc1OC [Compound 3v], the MIC50 [1] is reported as > 1 µM, the MIC90 [1] is reported as > 1 µM and the “activity” value [1] is reported as “devoid of activity”.
